Test results reported in patent US11767341B2, “Lincosamide antibiotics and uses thereof” (President and Fellows of Harvard College, priority 2017, dated 2023).
In brackets after ≈: the same amount, converted by molar mass. Where two headings read alike, the source gives them in different places.

Experiments:
Assay in all cases: MIC determination
Format in all cases: cell-based
S. aureus ATCC 29213 = test system: S. aureus ATCC 29213
S. aureus BAA 977 iErmA = conditions: Staphylococcus aureus, BAA977
[1] = test system: S. aureus MP-549 msr(a) USA 300; conditions: Staphylococcus aureus, USA300, S. aureus MP-549 msr(a) USA 300
S. aureus MMX 3035 cErmA = conditions: Staphylococcus aureus, MMX3035CERMA; S. aureus MMX 3035 cErmA; read-out: MIC
S. pneumoniae ATCC 49619 = conditions: Streptococcus pneumoniae, ATCC49619; S. pneumoniae ATCC 49619; read-out: MIC
[2] = test system: S. pneumoniae MMX 3028 cErmB; conditions: Streptococcus pneumoniae, MMX3028CERMB
[3] = test system: S. pneumoniae MMX 3031 cMefA; conditions: Streptococcus pneumoniae, MMX3031CMEFA
S. pyogenes ATCC 19615 = conditions: S. pyogenes ATCC 19615
[4] = test system: S. pyogenes MMX 946 Macrolide-Resistant; conditions: Streptococcus pyogenes
E. faecalis ATCC 29212 = conditions: Enterococcus faecalis
[5] = test system: E. faecalis MMX 847 Macrolide-Resistant; conditions: Enterococcus faecalis, read-out: MIC
K. pneumoniae ATCC 10031 = conditions: Klebsiella pneumoniae, ATCC10031
E. coli ATCC 25922 = conditions: Escherichia coli, ATCC25922, E. coli ATCC 25922; read-out: MIC
E. coli MP-9 ΔTolC = test system: E. coli MP-9 ΔTolC
[6] = test system: E. coli MP-74 LptD mutant
H. influenzae ATCC 49247 = test system: H. influenzae ATCC 49247
[7] = Staphylococcus aureus, ATCC29213, S. aureus ATCC 29213, read-out: MIC
[8] = Streptococcus pyogenes, ATCC19615, read-out: MIC
[9] = S. pyogenes MMX 946 Macrolide-Resistant (MacRes), read-out: MIC
[10] = E. faecalis MMX 847 Macrolide-Resistant (MacRes)
[11] = Haemophilus influenzae, ATCC49247, H. influenzae ATCC 49247, read-out: MIC
[12] = S. pneumoniae MMX 3028 cErmB, read-out: MIC
[13] = S. pyogenes MMX 946 MacRes, read-out: MIC
[14] = Haemophilus influenzae, ATCC49247

Row | SMILES | MIC (S. aureus ATCC 29213; [7]) [µg/mL] | MIC (S. aureus BAA 977 iErmA) [µg/mL] | MIC [1] [µg/mL] | MIC (S. aureus MMX 3035 cErmA) [µg/mL] | MIC (S. pneumoniae ATCC 49619) [µg/mL] | MIC [2] [µg/mL] | MIC [3] [µg/mL] | MIC (S. pyogenes ATCC 19615; [8]) [µg/mL] | MIC [4, 9] [µg/mL] | MIC (E. faecalis ATCC 29212; ATCC29212, read-out: MIC) [µg/mL] | MIC [5, 10] [µg/mL] | MIC (K. pneumoniae ATCC 10031) [µg/mL] | MIC (E. coli ATCC 25922) [µg/mL] | MIC (E. coli MP-9 ΔTolC; Escherichia coli) [µg/mL] | MIC ([6]; Escherichia coli) [µg/mL] | MIC (H. influenzae ATCC 49247; [11]) [µg/mL] | MIC [2, 12] [µg/mL] | MIC ([5]; E. faecalis MMX 847 MacRes) [µg/mL] | further results
1 | CSC1O[C@H]([C@H](NC(=O)[C@H]2NC[C@@H]3C=C(c4cccc(F)c4)CCO[C@@H]23)[C@H](C)Cl)C(O)[C@@H](O)[C@H]1O (stereo partly shown) [FSA-511071] | 7 (≈ 13.2 µM) | 2 (≈ 3.77 µM) | 1 (≈ 1.88 µM) | > 64 | 0.25 (≈ 0.471 µM) | 64 (≈ 121 µM) | 0.5 (≈ 0.942 µM) | 0.5 (≈ 0.942 µM) | > 64 | 4 (≈ 7.53 µM) | > 64 | 64 (≈ 121 µM) | > 64 | 64 (≈ 121 µM) | 64 (≈ 121 µM) | > 64 | – | – | –
2 | CSC1O[C@H]([C@H](NC(=O)[C@H]2NC[C@@H]3C=C(c4ccc(F)cc4F)CCO[C@@H]23)[C@H](C)Cl)C(O)[C@@H](O)[C@H]1O (stereo partly shown) [FSA-511072] | 1 (≈ 1.82 µM) | 1 (≈ 1.82 µM) | 1 (≈ 1.82 µM) | > 64 | 0.12 (≈ 0.219 µM) | 64 (≈ 117 µM) | 0.12 (≈ 0.219 µM) | 0.25 (≈ 0.455 µM) | > 64 | 4 (≈ 7.29 µM) | > 64 | 32 (≈ 58.3 µM) | > 64 | 32 (≈ 58.3 µM) | 64 (≈ 117 µM) | > 64 | – | – | –
3 | CSC1O[C@H]([C@H](NC(=O)[C@H]2NC[C@@H]3C=C(c4ccccc4F)CCO[C@@H]23)[C@H](C)Cl)C(O)[C@@H](O)[C@H]1O (stereo partly shown) [FSA-511073] | 1 (≈ 1.88 µM) | 1 (≈ 1.88 µM) | 1 (≈ 1.88 µM) | > 64 | 0.12 (≈ 0.226 µM) | 64 (≈ 121 µM) | 0.12 (≈ 0.226 µM) | 0.25 (≈ 0.471 µM) | > 64 | 4 (≈ 7.53 µM) | > 64 | 64 (≈ 121 µM) | > 64 | 64 (≈ 121 µM) | 64 (≈ 121 µM) | > 64 | – | – | –
4 | CSC1O[C@H]([C@H](NC(=O)[C@H]2NC[C@@H]3C=C(c4cc(F)cc(F)c4)CCO[C@@H]23)[C@H](C)Cl)C(O)[C@@H](O)[C@H]1O (stereo partly shown) [FSA-511074] | 2 (≈ 3.64 µM) | 2 (≈ 3.64 µM) | 1 (≈ 1.82 µM) | > 64 | 0.25 (≈ 0.455 µM) | 64 (≈ 117 µM) | 0.25 (≈ 0.455 µM) | 0.5 (≈ 0.911 µM) | > 64 | 4 (≈ 7.29 µM) | > 64 | 64 (≈ 117 µM) | > 64 | 64 (≈ 117 µM) | 64 (≈ 117 µM) | > 64 | – | – | –
5 | COc1ccc([C@H]2CCO[C@@H]3[C@H](CN[C@@H]3C(=O)N[C@H]([C@H](C)Cl)[C@H]3OC(SC)[C@H](O)[C@H](O)C3O)C2)cc1 (stereo partly shown) [FSA-512080b] | 0.12 (≈ 0.22 µM) | 0.25 (≈ 0.459 µM) | 0.5 (≈ 0.917 µM) | 64 (≈ 117 µM) | ≤ 0.06 | – | ≤ 0.06 | ≤ 0.06 | – | – | – | – | 128 (≈ 235 µM) | 4 (≈ 7.34 µM) | 8 (≈ 14.7 µM) | 16 (≈ 29.4 µM) | 4 (≈ 7.34 µM) | 64 (≈ 117 µM) | MIC [4, 13]: 16 µg/mL (≈ 29.4 µM); MIC (E. faecalis ATCC 29212; ATCC29212): 0.5 µg/mL (≈ 0.917 µM)
6 | COc1ccc([C@@H]2CCO[C@@H]3[C@H](CN[C@@H]3C(=O)N[C@H]([C@H](C)Cl)[C@H]3OC(SC)[C@H](O)[C@H](O)C3O)C2)cc1 (stereo partly shown) [FSA-512080c] | 0.25 (≈ 0.459 µM) | 0.5 (≈ 0.917 µM) | 0.5 (≈ 0.917 µM) | 128 (≈ 235 µM) | ≤ 0.06 | – | 0.12 (≈ 0.22 µM) | ≤ 0.06 | – | 2 (≈ 3.67 µM) | – | – | > 128 | 8 (≈ 14.7 µM) | 32 (≈ 58.7 µM) | – | 16 (≈ 29.4 µM) | 128 (≈ 235 µM) | MIC [4, 13]: 64 µg/mL (≈ 117 µM); MIC (H. influenzae ATCC 49247; [14]): 32 µg/mL (≈ 58.7 µM)
7 | CSC1O[C@H]([C@H](NC(=O)[C@H]2NC[C@@H]3C[C@@H](c4ccc(C#N)cc4)CCO[C@H]32)[C@H](C)Cl)C(O)[C@@H](O)[C@H]1O (stereo partly shown) [FSA-512081a] | – | 1 (≈ 1.85 µM) | – | 128 (≈ 237 µM) | – | – | < 0.06 | – | – | – | – | – | – | – | – | – | 4 (≈ 7.41 µM) | 64 (≈ 119 µM) | MIC (S. aureus ATCC 29213; S. aureus ATCC 29213): 0.25 µg/mL (≈ 0.463 µM); MIC (S. pyogenes ATCC 19615): ≤0.06 µg/mL; MIC [4]: 16 µg/mL (≈ 29.6 µM); MIC (E. faecalis ATCC 29212; ATCC29212): 0.5 µg/mL (≈ 0.926 µM); MIC (E. coli MP-9 ΔTolC): 4 µg/mL (≈ 7.41 µM); MIC [6]: 16 µg/mL (≈ 29.6 µM); MIC (H. influenzae ATCC 49247; H. influenzae ATCC 49247): 16 µg/mL (≈ 29.6 µM)
8 | CSC1O[C@H]([C@H](NC(=O)[C@H]2NC[C@@H]3C[C@H](c4ccc(C#N)cc4)CCO[C@H]32)[C@H](C)Cl)C(O)[C@@H](O)[C@H]1O (stereo partly shown) [FSA-512081b] | 0.25 (≈ 0.463 µM) | 1 (≈ 1.85 µM) | 1 (≈ 1.85 µM) | 128 (≈ 237 µM) | ≤ 0.06 | 16 (≈ 29.6 µM) | 0.12 (≈ 0.222 µM) | ≤ 0.06 | – | 1 (≈ 1.85 µM) | – | – | 128 (≈ 237 µM) | 8 (≈ 14.8 µM) | 32 (≈ 59.3 µM) | – | – | 128 (≈ 237 µM) | MIC [4]: 32 µg/mL (≈ 59.3 µM); MIC (H. influenzae ATCC 49247; [14]): 16 µg/mL (≈ 29.6 µM)
